Data published in ChEMBL document CHEMBL1201862, “PubChem BioAssay data set” (2004).
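Cultured in 96-well plates, cells were exposed to test compound for 48 hours across five concentrations. GI50: concentration for 50% inhibition of growth.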 Activity calls are given as the source filed them. Cut-off read from the data, not from the text of the source: active = GI50 up to about 1.1 µM and inactive = higher.

Legend:
Assay in all cases: growth of human tumour cells (NCI), 48 h
786-0 = test system: 786-0
A498 = test system: A498
A549 = test system: A549
ACHN = test system: ACHN
CAKI-1 = test system: CAKI-1
COLO 205 = test system: COLO 205
DLD-1 = test system: DLD-1
DMS-114 = test system: DMS-114
DMS-273 = test system: DMS-273
EKVX = test system: EKVX
HCC 2998 = test system: HCC 2998
HCT-116 = test system: HCT-116
HCT-15 = test system: HCT-15
HOP-18 = test system: HOP-18
HOP-62 = test system: HOP-62
HOP-92 = test system: HOP-92
HT-29 = test system: HT-29
IGROV-1 = test system: IGROV-1
K562 = test system: K562
KM-20L2 = test system: KM-20L2
LXFL 529 = test system: LXFL 529
M14 = test system: M14
M19-MEL = test system: M19-MEL
Malme-3M = test system: Malme-3M
NCI-H226 = test system: NCI-H226
NCI-H23 = test system: NCI-H23
NCI-H460 = test system: NCI-H460
OVCAR-3 = test system: OVCAR-3
OVCAR-4 = test system: OVCAR-4
OVCAR-5 = test system: OVCAR-5
OVCAR-8 = test system: OVCAR-8
RPMI-8226 = test system: RPMI-8226
RXF 393 = test system: RXF 393
SF-268 = test system: SF-268
SF-295 = test system: SF-295
SF-539 = test system: SF-539
SK-MEL-28 = test system: SK-MEL-28
SK-MEL-2 = test system: SK-MEL-2
SK-OV-3 = test system: SK-OV-3
SN12C = test system: SN12C
SNB-19 = test system: SNB-19
SNB-75 = test system: SNB-75
SNB-78 = test system: SNB-78
SR = test system: SR
SW-620 = test system: SW-620
U-251 = test system: U-251
UACC-257 = test system: UACC-257
UACC-62 = test system: UACC-62
UO-31 = test system: UO-31
CCRF-CEM = test system: CCRF-CEM
KM12 = test system: KM12
LOX IMVI = test system: LOX IMVI
MOLT-4 = test system: MOLT-4
NCI-H522 = test system: NCI-H522
SK-MEL-5 = test system: SK-MEL-5
TK-10 = test system: TK-10

`O=C(Cc1nc2ccccc2o1)C(=O)Nc1ccc(Cl)cc1Cl` was tested, and the GI50 (786-0) was > 100 µM (inactive), the GI50 (A498) was > 100 µM (inactive) and the GI50 (A549) was > 100 µM (inactive). The GI50 (ACHN) was > 100 µM (inactive), the GI50 (CAKI-1) was > 100 µM (inactive) and the GI50 (COLO 205) was > 100 µM (inactive). For the same molecule, the GI50 (DLD-1) was > 100 µM (inactive), the GI50 (DMS-114) was > 100 µM (inactive) and the GI50 (DMS-273) was > 100 µM (inactive). For the same molecule, the GI50 (EKVX) was > 100 µM (inactive), the GI50 (HCC 2998) was > 100 µM (inactive) and the GI50 (HCT-116) was > 100 µM (inactive). The GI50 (HCT-15) was greater than 100 µM, the GI50 (HOP-18) was > 100 µM (inactive) and the GI50 (HOP-62) was > 100 µM (inactive). The GI50 (HOP-92) was > 100 µM (inactive), the GI50 (HT-29) was > 100 µM (inactive) and the GI50 (IGROV-1) was > 100 µM (inactive). The GI50 (K562) was > 100 µM (inactive), the GI50 (KM-20L2) was > 100 µM (inactive) and the GI50 (LXFL 529) was > 100 µM (inactive). The GI50 (M14) was > 100 µM (inactive), the GI50 (M19-MEL) was > 100 µM (inactive) and the GI50 (Malme-3M) was > 100 µM (inactive). For the same molecule, the GI50 (NCI-H226) was > 100 µM (inactive), the GI50 (NCI-H23) was > 100 µM (inactive) and the GI50 (NCI-H460) was > 100 µM (inactive). For the same molecule, the GI50 (OVCAR-3) was > 100 µM (inactive), the GI50 (OVCAR-4) was > 100 µM (inactive) and the GI50 (OVCAR-5) was > 100 µM (inactive). The GI50 (OVCAR-8) was > 100 µM (inactive), the GI50 (RPMI-8226) was > 100 µM (inactive) and the GI50 (RXF 393) was > 100 µM (inactive). For the same molecule, the GI50 (SF-268) was > 100 µM (inactive), the GI50 (SF-295) was > 100 µM (inactive) and the GI50 (SF-539) was > 100 µM (inactive). The GI50 (SK-MEL-28) was > 100 µM (inactive), the GI50 (SK-MEL-2) was > 100 µM (inactive) and the GI50 (SK-OV-3) was > 100 µM (inactive). The GI50 (SN12C) was > 100 µM (inactive), the GI50 (SNB-19) was > 100 µM (inactive) and the GI50 (SNB-75) was 49.2 µM (inactive). For the same molecule, the GI50 (SNB-78) was > 100 µM (inactive), the GI50 (SR) was 13.1 µM (inactive) and the GI50 (SW-620) was > 100 µM (inactive). The GI50 (U-251) was > 100 µM (inactive), the GI50 (UACC-257) was > 100 µM (inactive) and the GI50 (UACC-62) was > 100 µM (inactive). For the same molecule, the GI50 (UO-31) was > 100 µM (inactive).
`O=C1c2ccccc2C2(O)c3cc4ccccc4cc3OC12O` (stereo not drawn) was tested, and the GI50 (786-0) was > 100 µM (inactive), the GI50 (A498) was > 100 µM (inactive) and the GI50 (A549) was 44.4 µM (inactive). For the same molecule, the GI50 (ACHN) was 97.3 µM (inactive), the GI50 (CAKI-1) was 62.7 µM (inactive) and the GI50 (CCRF-CEM) was 47.2 µM (inactive). For the same molecule, the GI50 (COLO 205) was > 100 µM (inactive), the GI50 (DLD-1) was > 100 µM (inactive) and the GI50 (DMS-114) was 25.1 µM (inactive). For the same molecule, the GI50 (DMS-273) was 46.8 µM (inactive), the GI50 (EKVX) was 41.7 µM (inactive) and the GI50 (HCC 2998) was 54 µM (inactive). The GI50 (HCT-116) was 69 µM (inactive), the GI50 (HCT-15) was 53.2 µM and the GI50 (HOP-18) was 69.7 µM (inactive). For the same molecule, the GI50 (HOP-62) was 83.8 µM (inactive), the GI50 (HOP-92) was 27.6 µM (inactive) and the GI50 (HT-29) was > 100 µM (inactive). For the same molecule, the GI50 (IGROV-1) was 85.7 µM (inactive), the GI50 (K562) was 46 µM (inactive) and the GI50 (KM-20L2) was > 100 µM (inactive). For the same molecule, the GI50 (KM12) was 46.8 µM (inactive), the GI50 (LOX IMVI) was 68.5 µM (inactive) and the GI50 (LXFL 529) was 55.5 µM (inactive). The GI50 (M14) was 56.9 µM (inactive), the GI50 (M19-MEL) was 47.2 µM (inactive) and the GI50 (MOLT-4) was 37.7 µM (inactive). For the same molecule, the GI50 (Malme-3M) was 47.1 µM (inactive), the GI50 (NCI-H226) was 42.4 µM (inactive) and the GI50 (NCI-H23) was 55.6 µM (inactive). The GI50 (NCI-H460) was 76.7 µM (inactive), the GI50 (NCI-H522) was 40.9 µM (inactive) and the GI50 (OVCAR-3) was 53.6 µM (inactive). For the same molecule, the GI50 (OVCAR-4) was 84.7 µM (inactive), the GI50 (OVCAR-5) was > 100 µM (inactive) and the GI50 (OVCAR-8) was 58.1 µM (inactive). The GI50 (RPMI-8226) was 34 µM (inactive), the GI50 (RXF 393) was 29.2 µM (inactive) and the GI50 (SF-268) was 87.7 µM (inactive). The GI50 (SF-295) was 34.2 µM (inactive), the GI50 (SF-539) was > 100 µM (inactive) and the GI50 (SK-MEL-28) was 59.3 µM (inactive). For the same molecule, the GI50 (SK-MEL-2) was 47.3 µM (inactive), the GI50 (SK-MEL-5) was 30.1 µM (inactive) and the GI50 (SK-OV-3) was > 100 µM (inactive). The GI50 (SN12C) was 92.5 µM (inactive), the GI50 (SNB-19) was 31.2 µM (inactive) and the GI50 (SNB-75) was 49.3 µM (inactive). For the same molecule, the GI50 (SNB-78) was 46.7 µM (inactive), the GI50 (SW-620) was > 100 µM (inactive) and the GI50 (TK-10) was > 100 µM (inactive). For the same molecule, the GI50 (U-251) was 54.7 µM (inactive), the GI50 (UACC-257) was 30 µM (inactive) and the GI50 (UACC-62) was 47.2 µM (inactive).
